The source of these data is publication PMC9600929, “Structural and Mechanistic Bases of Viral Resistance to HIV-1 Capsid Inhibitor Lenacapavir” (mBio, 2022).

For data set [1], the target named is cross-linked HIV-1 CA(WT) hexamer (Human immunodeficiency virus type 1 group M subtype B, UniProt P12493, A146C/E177C/M317A/W316A). Kind of data set: SPR binding to cross-linked CA(WT) hexamers.
The target of data set [2] is T1, cross-linked HIV-1 CA(Q67H/N74D) hexamer (Human immunodeficiency virus type 1 group M subtype B, UniProt P12493, A146C/E177C/M317A/N206D/Q199H/W316A).
T1 construct: Expression, purification and assembly of recombinant CA; made in house; host or cells: E. coli BL21-DE3 (pET3a)
Description: biochemical. The class given is binding.

The test system of data set [3] is HIV-1NL4-3 WT CA. Kind of data set: microbe, parasite or virus in culture. The class given is cell-based. The note with it: Human immunodeficiency virus 1, MT4.
For data set [4], the system named is HIV-1NL4-3 Q67H CA. Description: microbe, parasite or virus in culture. Format: cell-based. To be noted: for EC50: Human immunodeficiency virus 1, MT4.
The test system of data set [5] is HIV-1NL4-3 N74D CA. Kind of data set: microbe, parasite or virus in culture. To be noted: for EC50: Human immunodeficiency virus 1, MT4. Format: cell-based.
The test system of data set [6] is HIV-1NL4-3 Q67H/N74D CA. Kind of data set: microbe, parasite or virus in culture. Format: cell-based. To be noted: for EC50: Human immunodeficiency virus 1, MT4.
Data set [7] concerns HIV-1NL4-3 Q67H/K70R CA. Description: microbe, parasite or virus in culture. The note with it: for EC50: Human immunodeficiency virus 1, MT4, HIV-1NL4-3 Q67H/K70R CA, MT-4 cells, mean ± SD. The class given is cell-based.
Data set [8] deals with HIV-1(M66I CA). The class given is cell-based. The note with it: early stage antiviral activity.
Data set [9] can be described thus: in vitro. The class given is cell-based. To be noted: human; from cytotoxicity (Fig. S7) and antiviral activity (Fig. 5C); read-out: selectivity index. Here is the method: (§1) MT4 cells in complete RPMI were mixed with the indicated concentrations of compounds on 96-well plates (1 × 10^4 cells per well). Cells were kept in a humidified 37°C incubator for 2 days. The effect of test compounds on cell viability was measured using CellTiter-Glo (Promega, G7570).

Data set [10] relates to MT4 cells. Description: in vitro. The note with it: MT4 cells, 2 days, CellTiter-Glo. Format: cell-based. On the procedure:
as §1

In data set [11] the target is cross-linked HIV-1 CA(Q67H) hexamer (Human immunodeficiency virus type 1 group M subtype B, UniProt P12493, A146C/E177C/M317A/Q199H/W316A). Kind of data set: SPR binding to cross-linked CA(Q67H) hexamers.
Data set [12] concerns the target cross-linked HIV-1 CA(N74D) hexamer (Human immunodeficiency virus type 1 group M subtype B, UniProt P12493, A146C/E177C/M317A/N206D/W316A). Kind of data set: SPR binding to cross-linked CA(N74D) hexamers.
The test system of data set [13] is HIV-1 reverse transcription. On the set-up: method as in PMID 32612233, PMID 31501601, PMID 33060363. The note with it: during virus ingress; cited from earlier work.
Data set [14] concerns HIV-1 nuclear import. On the set-up: method as in PMID 32612233, PMID 31501601, PMID 33060363. To be noted: during virus ingress; cited from earlier work.
The subject of data set [15] is HIV-1 integration. On the set-up: method as in PMID 32612233, PMID 31501601, PMID 33060363. To be noted: during virus ingress; cited from earlier work.
[16] abbreviates: WT compared to WT CA (reference).

“And” between values parts separate entries of the source, which are not always exact repeats. Equal values may be shown once.

Take `CC(C)(C#Cc1ccc(-c2ccc(Cl)c3c(NS(C)(=O)=O)nn(CC(F)(F)F)c23)c([C@H](Cc2cc(F)cc(F)c2)NC(=O)Cn2nc(C(F)(F)F)c3c2CCCC3)n1)S(C)(=O)=O` [KFA-012]: the “improved binding affinity compared with parental LEN” value is given as ~ 2 fold in data set [1] (CA(WT) hexamer, SPR) and ~ 2 fold in data set [2] (CA(Q67H/N74D) hexamer, SPR). The EC50 in data set [3] came out at 0.071 ± 0.006 nM; in [4], 0.335 ± 0.01 nM; in [5], 0.633 ± 0.014 nM; in [6] it was 9.18 nM; in [7], 0.883 ± 0.17 nM. The “Fold increase of KFA-012 potency versus LEN potency” value is listed as 1.8 fold in [4] (HIV-1NL4-3 Q67H CA), 2.6 fold in data set [6] (HIV-1NL4-3 Q67H/N74D CA) and ~ 1.7 fold in data set [7] (HIV-1NL4-3 Q67H/K70R CA). Besides, in data set [8], the “susceptibility of the virus to the inhibitor” value is reported as “fully resistant”. The selectivity ratio at 2 days in data set [9] is above 10000. Further, the “compound concentrations with adverse effects on cell viability” value in [10] is above 3000 nM. In data set [10], the “concentration up to which no cytotoxicity was observed” value is on record as “up to 781 nM”.

For `CC(C)(C#Cc1ccc(-c2ccc(Cl)c3c(NS(C)(=O)=O)nn(CC(F)(F)F)c23)c([C@H](Cc2cc(F)cc(F)c2)NC(=O)Cn2nc(C(F)(F)F)c3c2C(F)(F)[C@@H]2C[C@H]32)n1)S(C)(=O)=O` [LEN, Lenacapavir], the “association rate constant (kon)” value is 7.0 ± 1.6 x 10^4 M^-1s^-1 in data set [1] (CA (WT), mean ± SD); 6.4 ± 1.1 x 10^4 M^-1s^-1 in data set [11] (CA (Q67H), mean ± SD); 3.0 ± 0.3 x 10^4 M^-1s^-1 in data set [12] (CA (N74D), mean ± SD); 3.0 ± 0.9 x 10^4 M^-1s^-1 in data set [2] (CA (Q67H/N74D), mean ± SD). Moreover, the “dissociation rate constant (koff)” value in [1] (CA (WT), mean ± SD) is 1.5 ± 0.2 x 10^-5 s^-1; in data set [11] (CA (Q67H), mean ± SD), 7.3 ± 1.0 x 10^-5 s^-1; in [12] (CA (N74D), mean ± SD), 1.4 ± 0.02 x 10^-4 s^-1; in [2] (CA (Q67H/N74D), mean ± SD), 1.1 ± 0.5 x 10^-3 s^-1. Moreover, the dissociation constant (Kd) is 0.23 ± 0.08 nM in data set [1] (CA (WT), mean ± SD, three independent experiments, read-out: equilibrium dissociation constant (KD)); 1.2 nM in [11] (CA (Q67H), mean ± SD, read-out: equilibrium dissociation constant (KD)); 4.6 nM in data set [12] (CA (N74D), mean ± SD, read-out: equilibrium dissociation constant (KD)); 34.1 nM in data set [2] (CA (Q67H/N74D), mean ± SD, read-out: equilibrium dissociation constant (KD)). In addition, the KD fold change in [1] (setting [16]) was found to be 1 fold. The koff fold change in data set [1] (setting [16]) was 1 fold; in data set [11] (Q67H CA compared to WT CA), 5 fold; in data set [12] (N74D CA compared to WT CA) it was ~ 10 fold and 9 fold; in [2] (Q67H/N74D CA compared to WT CA), 73 fold. The kon fold change stood at 1 fold in data set [1] (setting [16]), 0.9 fold in data set [11] (Q67H CA compared to WT CA), 0.4 fold in data set [12] (N74D CA compared to WT CA) and 0.4 fold in data set [2] (Q67H/N74D CA compared to WT CA). Besides, the “adverse effect on association rate constant” value in data set [12] (N74D CA versus WT CA, stated as fold adverse effect) was ~ 2 fold. The EC50 is 0.091 ± 0.01 nM in [3]; 0.611 ± 0.01 nM in [4]; 0.902 ± 0.027 nM in [5]; 24.2 nM in [6]; 1.5 ± 0.023 nM in data set [7]; 5 to 50 nM in data set [13]. Also, the results for the EC50 in data set [14] and in data set [15] were 0.5 to 5 nM and 0.05 to 0.5 nM, respectively. The “decreased potency of the inhibitor with respect to the CA variant” value in [4] (Q67H CA variant versus WT) came to 7 fold. Also, in data set [5] ({}), the “decreased virus susceptibility to the inhibitor” value was ~ 10 fold. Also, in data set [8], the “susceptibility of the virus to the inhibitor” value is “fully resistant”.
